Species: Mus musculus
Experiment: Compound was measured for its inhibitory activity on IFN-gamma-induced nitric oxide production in mouse macrophage
Assay type: functional

Row | Structure (SMILES) | IC50
1 | C[C@]12CCC(=O)C=C1CCC1[C@@H]2[C@@H](O)C[C@@]2(C)[C@H]1CC[C@]2(O)C(=O)CO (single isomer, unassigned) [HYDROCORTISONE] | 0.015 µM

Species: Mus musculus
Experiment: Compound was measured for its inhibitory activity on IFN-gamma-induced nitric oxide production in mouse macrophage; toxic at 5-10 uM
Assay type: functional

Row | Structure (SMILES) | IC50
2 | C[C@@H]1CC[C@]2(C(=O)O)CC[C@]3(C)C(=CC[C@@H]4[C@@]5(C)CC[C@H](O)C(C)(C)[C@@H]5CC[C@]43C)C2[C@H]1C (stereo partly drawn) | toxic at 5-10 uM

Species: Mus musculus
Experiment: Inhibitory activity on IFN-gamma-induced nitric oxide production in mouse macrophage at a concentration of 0.1-40 uM
Assay type: functional

Row | Structure (SMILES) | IC50
3 | CC1(C)CC[C@]2(C(=O)O)CC[C@]3(C)C(CC=C4[C@@]5(C)C=CC(=O)C(C)(C)[C@@H]5CC[C@]43C)C2C1 (stereo partly drawn) | 5.2 µM
4 | CC1(C)CC[C@]2(C(=O)O)CC[C@]3(C)C(CC4OC45[C@@]4(C)C=CC(=O)C(C)(C)[C@@H]4CC[C@]53C)C2C1 (stereo partly drawn) | 35.5 µM
5 | C[C@@H]1CC[C@]2(C(=O)O)CC[C@]3(C)C(=CC(=O)[C@@H]4[C@@]5(C)C=CC(=O)C(C)(C)[C@@H]5CC[C@]43C)C2[C@H]1C (stereo partly drawn) | 5.1 µM
6 | CC1(C)CC[C@]2(C(=O)O)CC[C@]3(C)[C@H](C(=O)C=C4[C@@]5(C)C=CC(=O)C(C)(C)[C@@H]5CC[C@]43C)[C@@H]2C1 | 0.9 µM
7 | C[C@@H]1CC[C@]2(C(=O)O)CC[C@]3(C)C(=CC[C@@H]4[C@@]5(C)C=CC(=O)C(C)(C)[C@@H]5CC[C@]43C)C2[C@H]1C (stereo partly drawn) | 17.6 µM
8 | CC1(C)CC[C@]2(C(=O)O)CC[C@]3(C)C(C(=O)C[C@@H]4[C@@]5(C)C=CC(=O)C(C)(C)[C@@H]5CC[C@]43C)C2C1 (stereo partly drawn) | 3.3 µM
9 | CC1(C)CC[C@]2(C(=O)O)CC[C@]3(C)C(=C2C1)C=C[C@@H]1[C@@]2(C)C=CC(=O)C(C)(C)[C@@H]2CC[C@]13C | 9.7 µM
10 | CC1(C)CC[C@]2(C(=O)O)CC[C@]3(C)C(=C2C1)CC(=O)[C@@H]1[C@@]2(C)C=CC(=O)C(C)(C)[C@@H]2CC[C@]13C | 2.6 µM
11 | CC1(C)CC[C@]2(C(=O)O)CC[C@]3(C)C(CC[C@@H]4[C@@]5(C)C=CC(=O)C(C)(C)[C@@H]5CC[C@]43C)C2C1 (stereo partly drawn) | 8.5 µM

Continued, values first:

Row | IC50 | Structure (SMILES)
12 | 26.5 µM | CC1(C)CC[C@]2(C(=O)O)CC[C@]3(C)C(=CC[C@@H]4[C@@]5(C)C=C(O)C(=O)C(C)(C)[C@@H]5CC[C@]43C)C2C1 (stereo partly drawn)
13 | 6 µM | CC1(C)CC[C@]2(C(=O)O)CC[C@]3(C)C(=CC[C@@H]4[C@@]5(C)C=CC(=O)C(C)(C)[C@@H]5CC[C@]43C)C2C1 (stereo partly drawn)
14 | 40 µM | CC1(C)CC[C@]2(C(=O)O)CC[C@]3(C)C(=CC[C@@H]4[C@@]5(C)CC[C@H](O)C(C)(C)[C@@H]5CC[C@]43C)[C@@H]2C1 [OLEANOLIC_ACID]
15 | 1.8 µM | CC1(C)CC[C@]2(C(=O)O)CC[C@]3(C)C(=CC(=O)[C@@H]4[C@@]5(C)C=CC(=O)C(C)(C)[C@@H]5CC[C@]43C)C2C1 (stereo partly drawn)
16 | 30 µM | COC1=C[C@]2(C)[C@H]3CC=C4C5CC(C)(C)CC[C@]5(C(=O)O)CC[C@@]4(C)[C@]3(C)CC[C@H]2C(C)(C)C1=O (stereo partly drawn)
17 | 40 µM | COC(=O)[C@]12CCC(C)(C)CC1C1=CC[C@@H]3[C@@]4(C)C=CC(=O)C(C)(C)[C@@H]4CC[C@@]3(C)[C@]1(C)CC2 (stereo partly drawn)
18 | 37.1 µM | CC1(C)CC[C@]2(C(=O)O)CC[C@]3(C)C(=CC[C@@H]4[C@@]5(C)CCC(=O)C(C)(C)[C@@H]5CC[C@]43C)[C@@H]2C1 [OLEANONIC ACID]

— ChEMBL document CHEMBL1130462, “New enone derivatives of oleanolic acid and ursolic acid as inhibitors of nitric oxide production in mouse macrophages” (Bioorg Med Chem Lett, 1997)
